The values that follow come from patent US20260248780A1, “PHARMACEUTICAL COMPOSITIONS” (Birdie Biopharmaceuticals, Inc., priority 2017, published 2026).

What all share (assay type): physicochemical
The nature of data set [1]: Kinetic solubility in water and bio-relevant media (SGF, FaSSIF, FeSSIF) at RT. To be noted: for solubility kinetic: water and bio-relevant media (SGF, FaSSIF, FeSSIF), water/bio-relevant media. How it is done:
After being centrifuged and separated using 0.45 μm Nylon filter, filtrates were collected for HPLC and pH test, and wet cakes for XRPD characterization. If clear solutions were obtained after 24 hours, accurate concentration and purity were measured for the solutions.

Data set [2] can be described thus: Inter-conversion of crystal forms via storage and heating experiments.
Data set [3] is described as follows: Solubility estimation in solvents at RT. The conditions noted are these: organic solvent or mixture, thermodynamic from solid.
Protocol: Solubility of Type A was estimated in nine solvents at RT. […] Approximately 2 mg solids were added into a 3-mL glass vial.
Where [4] appears, read: water and bio-relevant media (SGF, FaSSIF, FeSSIF) at RT.

What is called solubility is the concentration that dissolves in the medium under given conditions. In general, solubility (kinetic) refers to solubility judged after dilution from a stock solution rather than from solid.

Where a name gives a salt, the structure may show the parent alone. Marks after values point to notes of the source that are not given here.

Regarding `CCOCc1nc2c(N)nc3ccccc3c2n1CC(C)(C)O` [Mono-HCl salt Type A, resiquimod], in data set [1] (FaSSIF, thermodynamic from solid, FaSSIF, RT, 24 hrs, read-out: S: Solubility), the solubility at 24 h worked out at 4500 µg/mL. The “S: Solubility” value in data set [1] (FeSSIF, RT, 1 hr) was “C (C: Clear)”; in data set [1] (FeSSIF, RT, 2 hrs), “C (C: Clear)”; in data set [1] (FeSSIF, RT, 4 hrs), “C (C: Clear)”; in data set [1] (FeSSIF, RT, 24 hrs), 4.6* mg/mL; in data set [1] (SGF, RT, 1 hr) it was “C (C: Clear)”; in data set [1] (SGF, RT, 2 hrs), “C (C: Clear)”. Also, the “S: Solubility” value is on record as “C (C: Clear)” in data set [1] (SGF, RT, 4 hrs) and 4.7* mg/mL in data set [1] (SGF, RT, 24 hrs). In addition, the “solubility compared with freebase Type A” value in data set [1] (setting [4]) is reported as “improved or comparable solubility”. In addition, the solubility (kinetic) in data set [1] (water, summary) is > 3800 µg/mL.

For `CCOCc1nc2c(N)nc3ccccc3c2n1CC(C)(C)O` [Adipate Type A, resiquimod], the “FC: Solid form change” value in data set [1] (FaSSIF, RT, 1 hr) was “No”; in data set [1] (Water, RT, 1 hr), “No”; in data set [1] (Water, RT, 2 hrs) it was “No”; in data set [1] (Water, RT, 4 hrs) it was “No”; in data set [1] (Water, RT, 24 hrs), “No”. Further, the “S: Solubility” value in data set [1] (FaSSIF, RT, 1 hr) is 4.3 mg/mL; in data set [1] (FaSSIF, RT, 2 hrs) it was 4.5 mg/mL; in data set [1] (FaSSIF, RT, 4 hrs), 4.6 mg/mL; in data set [1] (FaSSIF, RT, 24 hrs) it was 4.5* mg/mL; in data set [1] (SGF, RT, 1 hr), 4.7 mg/mL; in data set [1] (SGF, RT, 2 hrs), “C (C: Clear)”. In addition, the “S: Solubility” value in data set [1] (SGF, RT, 4 hrs) is recorded as “C (C: Clear)”; in data set [1] (SGF, RT, 24 hrs), 4.7* mg/mL; in data set [1] (Water, RT, 1 hr), 2.8 mg/mL; in data set [1] (Water, RT, 2 hrs), 2.7 mg/mL; in data set [1] (Water, RT, 4 hrs), 2.8 mg/mL; in data set [1] (Water, RT, 24 hrs) it was 2.7 mg/mL. Further, the results for the “Kinetic Solubility at RT” value in data set [1] (bio-relevant media) and in data set [1] (water) were >4.2 (bio-relevant mg/mL and ~2.7 (water) mg/mL, respectively. The “solubility compared with freebase Type A” value in data set [1] (setting [4]) is given as “improved or comparable solubility”.

`CCOCc1nc2c(N)nc3ccccc3c2n1CC(C)(C)O` [Sulfate Type A, resiquimod]: the “S: Solubility” value is listed as “C (C: Clear)” in data set [1] (FaSSIF, RT, 1 hr); “C (C: Clear)” in data set [1] (FaSSIF, RT, 2 hrs); “C (C: Clear)” in data set [1] (FaSSIF, RT, 4 hrs); 4.0* mg/mL in data set [1] (FaSSIF, RT, 24 hrs); “C (C: Clear)” in data set [1] (FeSSIF, RT, 1 hr); “C (C: Clear)” in data set [1] (SGF, RT, 1 hr). Further, the “S: Solubility” value in data set [1] (SGF, RT, 2 hrs) was “C (C: Clear)”; in data set [1] (SGF, RT, 4 hrs), “C (C: Clear)”; in data set [1] (SGF, RT, 24 hrs) it was 3.9* mg/mL; in data set [1] (Water, RT, 1 hr), “C (C: Clear)”; in data set [1] (Water, RT, 2 hrs), “C (C: Clear)”; in data set [1] (Water, RT, 4 hrs), “C (C: Clear)”. Further, the “S: Solubility” value in data set [1] (Water, RT, 24 hrs) was 4.1* mg/mL. In addition, the “solubility compared with freebase Type A” value in data set [1] (setting [4]) is listed as “improved or comparable solubility”.

For `CCOCc1nc2c(N)nc3ccccc3c2n1CC(C)(C)O` [Maleate Type A, resiquimod], the “FC: Solid form change” value in data set [1] (FaSSIF, RT, 1 hr) is on record as “No”; in data set [1] (FaSSIF, RT, 2 hrs), “No”; in data set [1] (FaSSIF, RT, 4 hrs) it was “No”; in data set [1] (FaSSIF, RT, 24 hrs), “No”; in data set [1] (FeSSIF, RT, 1 hr), “No”; in data set [1] (FeSSIF, RT, 2 hrs) it was “No”. Also, the “FC: Solid form change” value is “No” in data set [1] (FeSSIF, RT, 4 hrs); “No” in data set [1] (FeSSIF, RT, 24 hrs); “No” in data set [1] (SGF, RT, 1 hr); “No” in data set [1] (SGF, RT, 2 hrs); “No” in data set [1] (SGF, RT, 4 hrs); “No” in data set [1] (SGF, RT, 24 hrs). The “FC: Solid form change” value in data set [1] (Water, RT, 1 hr) was “No”; in data set [1] (Water, RT, 2 hrs), “No”; in data set [1] (Water, RT, 4 hrs), “No”; in data set [1] (Water, RT, 24 hrs), “No”. The “S: Solubility” value in data set [1] (FaSSIF, RT, 1 hr) amounted to 2.2 mg/mL; in data set [1] (FaSSIF, RT, 2 hrs), 2.3 mg/mL; in data set [1] (FaSSIF, RT, 4 hrs), 2.4 mg/mL; in data set [1] (FaSSIF, RT, 24 hrs) it was 2.3 mg/mL; in data set [1] (SGF, RT, 1 hr) it was 1.4 mg/mL; in data set [1] (SGF, RT, 2 hrs), 1.5 mg/mL. Besides, the “S: Solubility” value in data set [1] (SGF, RT, 4 hrs) is recorded as 1.6 mg/mL; in data set [1] (SGF, RT, 24 hrs), 1.5 mg/mL; in data set [1] (Water, RT, 1 hr) it was 0.93 mg/mL; in data set [1] (Water, RT, 2 hrs) it was 0.98 mg/mL; in data set [1] (Water, RT, 4 hrs), 1.1 mg/mL; in data set [1] (Water, RT, 24 hrs), 0.97 mg/mL. Moreover, the “solubility compared with freebase Type A” value in data set [1] (SGF, FaSSIF, and FeSSIF at RT) is “decreased solubility”. Moreover, the “Kinetic Solubility at RT” value was ~1.5 (bio-relevant mg/mL in data set [1] (bio-relevant media) and ~1.0 (water) mg/mL in data set [1] (water). Also, the “form change after kinetic solubility evaluation” value in data set [1] (remaining solids after suspended 24 hours, XRPD) is reported as “no form change”.

For `CCOCc1nc2c(N)nc3ccccc3c2n1CC(C)(C)O` [Phosphate Type A, resiquimod], the “S: Solubility” value in data set [1] (FaSSIF, RT, 1 hr) is “C (C: Clear)”; in data set [1] (FaSSIF, RT, 2 hrs), “C (C: Clear)”; in data set [1] (FaSSIF, RT, 4 hrs), “C (C: Clear)”; in data set [1] (FaSSIF, RT, 24 hrs), 4.3* mg/mL; in data set [1] (SGF, RT, 1 hr), “C (C: Clear)”; in data set [1] (SGF, RT, 2 hrs), “C (C: Clear)”. In addition, the “S: Solubility” value in data set [1] (SGF, RT, 4 hrs) was “C (C: Clear)”; in data set [1] (SGF, RT, 24 hrs), 4.0* mg/mL; in data set [1] (Water, RT, 1 hr), “C (C: Clear)”; in data set [1] (Water, RT, 2 hrs), “C (C: Clear)”; in data set [1] (Water, RT, 4 hrs) it was “C (C: Clear)”; in data set [1] (Water, RT, 24 hrs), 3.9* mg/mL. Besides, in data set [1] (setting [4]), the “solubility compared with freebase Type A” value is recorded as “improved or comparable solubility”.

Turning to `CCOCc1nc2c(N)nc3ccccc3c2n1CC(C)(C)O` [Type C, resiquimod], in data set [2] (dried at ambient conditions overnight), the “form conversion on drying” value is given as “converted to Type A”.

Turning to `CCOCc1nc2c(N)nc3ccccc3c2n1CC(C)(C)O` [Type F, resiquimod], the “form conversion on storage” value in data set [2] (storage at ambient conditions for 2 days) is on record as “converted to Type A”.

As for `CCOCc1nc2c(N)nc3ccccc3c2n1CC(C)(C)O` [Malate Type A, resiquimod], the “S: Solubility” value in data set [1] (FaSSIF, RT, 1 hr) was “C (C: Clear)”; in data set [1] (FaSSIF, RT, 2 hrs) it was “C (C: Clear)”; in data set [1] (FaSSIF, RT, 4 hrs), “C (C: Clear)”; in data set [1] (FaSSIF, RT, 24 hrs), 3.7* mg/mL; in data set [1] (SGF, RT, 1 hr), “C (C: Clear)”; in data set [1] (SGF, RT, 2 hrs), “C (C: Clear)”. The “S: Solubility” value in data set [1] (SGF, RT, 4 hrs) is listed as “C (C: Clear)”; in data set [1] (SGF, RT, 24 hrs), 4.3* mg/mL; in data set [1] (Water, RT, 1 hr) it was “C (C: Clear)”; in data set [1] (Water, RT, 2 hrs) it was “C (C: Clear)”; in data set [1] (Water, RT, 4 hrs), “C (C: Clear)”; in data set [1] (Water, RT, 24 hrs), 3.7* mg/mL. Moreover, in data set [1] (setting [4]), the “solubility compared with freebase Type A” value is on record as “improved or comparable solubility”. The kinetic solubility in data set [1] (water) is > 3500 µg/mL.

In the case of `CCOCc1nc2c(N)nc3ccccc3c2n1CC(C)(C)O` [Di-HCl salt Type A, resiquimod], the “S: Solubility” value in data set [1] (FaSSIF, RT, 1 hr) is given as “C (C: Clear)”; in data set [1] (FaSSIF, RT, 2 hrs) it was “C (C: Clear)”; in data set [1] (FaSSIF, RT, 4 hrs), “C (C: Clear)”; in data set [1] (FaSSIF, RT, 24 hrs) it was 3.9* mg/mL; in data set [1] (FeSSIF, RT, 1 hr), “C (C: Clear)”; in data set [1] (FeSSIF, RT, 2 hrs) it was “C (C: Clear)”. The “S: Solubility” value in data set [1] (FeSSIF, RT, 4 hrs) is recorded as “C (C: Clear)”; in data set [1] (FeSSIF, RT, 24 hrs) it was 3.9* mg/mL; in data set [1] (SGF, RT, 1 hr) it was “C (C: Clear)”; in data set [1] (SGF, RT, 2 hrs), “C (C: Clear)”; in data set [1] (SGF, RT, 4 hrs), “C (C: Clear)”; in data set [1] (SGF, RT, 24 hrs), 3.9* mg/mL. Besides, in data set [1] (setting [4]), the “solubility compared with freebase Type A” value is reported as “improved or comparable solubility”.

For `CCOCc1nc2c(N)nc3ccccc3c2n1CC(C)(C)O` [sulfate Type A (807919-21-A)], the solubility in data set [3] (ACN) was < 2200 µg/mL; in data set [3] (DMAc), > 40000 µg/mL; in data set [3] (DMSO), > 44000 µg/mL; in data set [3] (EtOAc), < 2200 µg/mL; in data set [3] (IPAc), < 2000 µg/mL; in data set [3] (MEK), < 2000 µg/mL. In addition, the solubility in data set [3] (MIBK) is < 2100 µg/mL; in data set [3] (MTBE), < 2300 µg/mL; in data set [3] (NMP), > 44000 µg/mL; in data set [3] (anisole), < 2200 µg/mL; in data set [3] (n-heptane), < 2100 µg/mL; in data set [3] (toluene), < 2000 µg/mL.
